Measurements reported in patent US5591734A, “17-(3-furyl)-5β, 14β-androstane derivatives active on the cardiovascular system, processes for their preparation and pharmaceutical compositions containing same” (Sigma-Tau Industrie Farmaceutiche Riunite S.p.A., priority 1992, dated 1997).
Structures can show the parent of a compound that is named as a salt. Where two headings read alike, the source gives them in different places.

Experiments:
[1] = biological target: T1, Na^+,K^+ -ATPase receptor (Homo sapiens, UniProt P05023); assay: displacement of the specific ^3 H-ouabain binding from the purified Na^+,K^+ -ATPase receptor; details: ^3 H-ouabain displacement, read-out: Binding ^3 H-Ouab. Displacement log IC50 (converted)
T1 construct: receptor purified according to Jorghensen (Jorghensen P., BBA, 1974, 356, 36); from tissue; kidney outer medulla inferred from the cited Jorgensen method
From the text: (§1) To test the affinity for the receptor site of the Na^+,K^+ -ATPase and the inhibitory activity on the enzyme, the following tests were used: a) displacement of the specific ^3 H-ouabain binding from the Na^+,K^^+ -ATPase receptor purified according to Jorghensen (Jorghensen P., BBA, 1974, 356, 36) and Erdmann (Erdmann E. et al., Arzneim. Forsh., 1984, 34, 1314); b) inhibition of the activity of the purified Na^+,K^+ -ATPase measured as % of hydrolysis of ^32 P-ATP in presence and in absence of the tested compound (Mall F. et al., Biochem. Pharmacol., 1984, 33, 47).

[2] = biological target: T2, purified Na^+,K^+ -ATPase (Homo sapiens, UniProt P05023); assay: biochemical
T2 construct: receptor purified according to Jorghensen (Jorghensen P., BBA, 1974, 356, 36); from tissue; kidney outer medulla inferred from the cited Jorgensen method
From the text: as §1

[3] = system: spontaneous hypertensive rats of the Milan (MHS); assay: antihypertensive activity in spontaneous hypertensive rats (MHS), indirect tail-cuff method; assay type: in vivo, rat; details: 10 mg/Kg/os daily for ten days in Methocel 0.5% w/v, 7 rats; for SBP (SYSTOLIC BLOOD PRESSURE FALL IN SPONTANEOUS HYPERTENSIVE RATS (MHS)): controls 172 +/- 2.0; for HR (heart rate): controls 328 +/- 8.6
[4] = purified Na^+,K^+ -ATPase, ^32 P-ATP hydrolysis, read-out: Inhibitory Activity log IC50 (converted)

SMILES | IC50 [1] | IC50 [2, 4] | SBP (SYSTOLIC BLOOD PRESSURE FALL IN SPONTANEOUS HYPERTENSIVE RATS (MHS)) [3] | HR (heart rate) [3] | IC50 [2]
C[C@]12CC[C@H](OCCN3CCCC3)C[C@H]1CC[C@@H]1[C@@H]2CC[C@]2(C)[C@@](O)(c3ccoc3)CC[C@]12O [Comp. I-d, 3β-(2-(1-Pyrrolidinyl)ethoxy)-17β-(3-furyl)-5β-androstane-14β,17α-diol] | 0.631 µM | 15.8 µM | 158 +/- 2.5 mm Hg | 325 +/- 9.3 beats/min. | –
C[C@]12CC[C@H](OCCO)C[C@H]1CC[C@@H]1[C@@H]2CC[C@]2(C)[C@@](O)(c3ccoc3)CC[C@]12O [Comp. I-b, 3β-(2-Hydroxyethoxy)-17β-(3-furyl)-5β-androstane-14β,17α-diol] | 3.16 µM | 25.1 µM | – | – | –
C[C@]12CC[C@H](SCCCN)C[C@H]1CC[C@@H]1[C@@H]2CC[C@@]2(C)[C@@]13O[C@@H]3C[C@]2(O)c1ccoc1 [Comp. I-r, 3β-(3-Aminopropylthio)-14β,15β-epoxy-17β-(3-furyl)-5β-androstan-17α-ol oxalate] | 3.98 µM | 31.6 µM | 154 +/- 2.4 mm Hg | 320 +/- 9.6 beats/min. | –
C[C@]12CC[C@H](O)C[C@H]1CC[C@@H]1[C@@H]2CC[C@]2(C)[C@@](O)(c3ccoc3)CC[C@]12O [Comp. I-a, 17β(3-Furyl)-5β-androstane-3β,14β,17α-triol] | 1.58 µM | 31.6 µM | 149 +/- 4.3 mm Hg | 318 +/- 10.2 beats/min. | –
C[C@]12CC[C@H](O)C[C@H]1CC[C@@H]1[C@@H]2CC[C@]2(C)[C@@](O)(C3=CC(=O)OC3)CC[C@]12O [Ref. Comp., 3β,14β,17α-trihydroxy-5β-card-20(22)-enolide, reference compound] | – | – | – | 334 +/- 11.7 beats/min. | –
C[C@]12CC[C@H](O)C[C@H]1CC[C@@H]1[C@@H]2CC[C@]2(C)[C@@](O)(c3ccnnc3)CC[C@]12O [Comp. I-n, 17β-(4-Pyridazinyl)-5β-androstane-3β,14β,17α-triol] | 2.51 µM | 25.1 µM | – | – | –
C[C@]12CC[C@H](OCCOCCN3CCCC3)C[C@H]1CC[C@@H]1[C@@H]2CC[C@]2(C)[C@@](O)(c3ccoc3)CC[C@]12O [Comp. I-w, 3β-(2-(2-(1-Pyrrolidinyl)ethoxy)ethoxy)-17β-(3-furyl)-5β-androstane-14β,17α-diol] | 0.631 µM | 3.98 µM | – | – | –
C[C@]12CCC(=NN=C(N)N)C[C@H]1CC[C@@H]1[C@@H]2CC[C@]2(C)[C@@](O)(c3ccoc3)CC[C@]12O [Comp. I-k, 3-Guanidinoimino-17β-(3-furyl)-5β-androstane-14β,17α-diol] | 1 µM | 15.8 µM | – | – | –
C[C@]12CC[C@H](OCCCN)C[C@H]1CC[C@@H]1[C@@H]2CC[C@]2(C)[C@@](O)(c3ccoc3)CC[C@]12O [Comp. I-c, 3β-(3-Aminopropoxy), 17β-(3-furyl)-5β-androstane-14β,17α-diol] | 0.501 µM | 7.94 µM | – | – | –
CO[C@]1(c2ccoc2)CC[C@]2(O)[C@@H]3CC[C@@H]4C[C@@H](OCCN5CCCC5)CC[C@]4(C)[C@H]3CC[C@]12C [Comp. I-f, 3β-(2-(β1-Pyrrolidinyl)ethoxy)-17β-(3-furyl)-17α-methoxy-5β-androstan-14β-ol] | 5.01 µM | 25.1 µM | – | – | –
CNCCO[C@H]1CC[C@@]2(C)[C@H](CC[C@@H]3[C@@H]2CC[C@]2(C)[C@@](O)(c4ccoc4)CC[C@]32O)C1 [Comp. I-x, 3β-(2-Methylaminoethoxy)-17β-(3-furyl)-5β-androstane 14β,17α-diol] | 0.501 µM | 10 µM | – | – | –
C[C@]12CCC(=O)C[C@H]1CC[C@@H]1[C@@H]2CC[C@]2(C)[C@@](O)(c3ccoc3)CC[C@]12O [Comp. I-j] | 3.98 µM | 79.4 µM | – | – | –
C[C@]12CC[C@H](OCCCNC(=N)N)C[C@H]1CC[C@@H]1[C@@H]2CC[C@]2(C)[C@@](O)(c3ccoc3)CC[C@]12O [Comp. I-y, 3β(3-Guanidinopropoxy)-17β-(3-furyl)-5β-androstane-14β,17α-diol] | 0.501 µM | – | – | – | 6.31 µM
C[C@]12CC[C@H](OCC(N)CN)C[C@H]1CC[C@@H]1[C@@H]2CC[C@]2(C)[C@@](O)(c3ccoc3)CC[C@]12O (stereo partly drawn) [Comp. I-z, 3β-(2,3-Diaminopropoxy)-17β-(3-furyl)-5β-androstane-14β,17α-diol] | 0.631 µM | – | – | – | 5.01 µM
